{
  "source": "patent US7888286B2",
  "about": "“Method of selectively controlling morning glory (Ipomoea) spp” (Bayer CropScience AG, priority 2006, dated 2011)",
  "key": {"morning glory spp. [1]": {"tested_on": "morning glory spp.", "experiment": "Herbicidal property on weeds", "type": "in vivo", "details": "for Herbicidal activity: all of the tested morning glory spp."}, "Abutilon theophrasti": {"tested_on": "Abutilon theophrasti", "experiment": "Herbicidal property on weeds", "details": "in vivo"}, "[2]": {"tested_on": "morning glory spp. such as Ipomoea triloba L. and Ipomoea hederacea Jacq.", "experiment": "Morning glory spp. control test with bialaphos solution (soybean field)", "type": "in vivo", "details": "for Herbicidal effect 1 week after: water 100 L/10 a, sprayed up to 20 cm above ground", "protocol": "On Aug. 9, 2005, a bialaphos solution (active ingredient amount: 18%, used in the form of the sodium salt bialaphos-sodium, amount calculated for bialaphos) was sprayed (solution amount: 500 to 1500 mL/10 a, water amount: 100 L/10 a) to morning glory spp. (height: 55 cm to 70 cm) such as Ipomoea triloba L. and Ipomoea hederacea Jacq. generated between ridges in a soybean field and coiled around soybean, from land surface up to a height of 20 cm above ground, and the herbicidal effect thereafter was observed."}, "Ipomoea hederacea Jacq.": {"tested_on": "Ipomoea hederacea Jacq.", "experiment": "Morning glory spp. control test: glufosinate (salt) sprayed only on lower half portion of hill", "type": "in vivo", "design": "key to Effect, upper half portion of hill / Effect, lower half portion of hill: +++ complete death; ++ almost death; + partial death; − no effect", "protocol": "(§1) In the case of spraying of glufosinate (salt) only on the lower half portion of a hill of morning glory spp:\n(§2) Ipomoea hederacea Jacq. and Ipomoea triloba L. generated in the form of grapevine and at the edge of a soybean field in Anjo City, Aichi Prefecture were tested. A 200-fold diluted solution of glufosinate was sprayed only on the lower half portion of the hill while covering the upper half portion thereof with plastic film so that the solution was not sprayed thereon. Thereafter, effects on the lower and upper half portions were observed."}, "Ipomoea triloba L.": {"tested_on": "Ipomoea triloba L.", "experiment": "Morning glory spp. control test: glufosinate (salt) sprayed only on lower half portion of hill", "type": "in vivo", "design": "key: +++ complete death; ++ almost death; + partial death; − no effect", "details": "treated Aug. 13, 2005, examined August 23", "protocol": "as §1, §2"}, "Ipomoea lacunosa L.": {"tested_on": "Ipomoea lacunosa L.", "experiment": "Morning glory spp. control test: glufosinate (salt) sprayed only on upper portion of stem (pot test)", "type": "in vivo", "design": "key to Effect, leaf 6 / Effect, leaf 5 / Effect, leaf 4 / Effect, leaf 3 / Effect, leaf 2 / Effect, leaf 1 / Effect, root / Effect, peak portion of stem / Effect, leaf 8 / Effect, leaf 7: +++ complete death; ++ almost death; + partial death; − no effect", "protocol": "In the case of spraying of glufosinate (salt) only on the upper portion of morning glory spp:\nIpomoea lacunosa L. (eight leaves) in a pot was tested. A 200-fold diluted solution of glufosinate (salt) was sprayed only on the upper portion of a stem while preventing spraying on the lower portion thereof. Thereafter, effects on respective portions were observed."}, "Sida spinosa L.": {"tested_on": "Sida spinosa L.", "experiment": "Herbicidal property on weeds", "details": "in vivo"}, "HIROHAFUURINHOZUKI": {"tested_on": "HIROHAFUURINHOZUKI", "experiment": "Herbicidal property on weeds", "details": "in vivo"}, "Aeschynomene indica": {"tested_on": "Aeschynomene indica", "experiment": "Herbicidal property on weeds", "details": "in vivo"}, "Solanum carolinense": {"tested_on": "Solanum carolinense", "experiment": "Herbicidal property on weeds", "details": "in vivo"}, "morning glory spp. [3]": {"tested_on": "morning glory spp.", "experiment": "Control machine-spraying of glufosinate (salt) on soybean inter-ridge: herbicidal effect", "type": "in vivo", "details": "500 mL/10 a in 100 L/10 a water", "protocol": "(§3) Soybean cultivation in the Tokai region is often carried out with large scale by farming associates and large scale farmhouses. Under such circumstances, morning glory spp. cause a serious problem in soybean fields during its growth period, and its controlling method is required to be established quickly. In soybean fields in Anjo City, Aichi Prefecture showing a problem of morning glory spp., a test for proving applicability of controlling morning glory spp. was performed using a control machine-spraying intending laborsaving.\n(§4) A commercially available spraying apparatus was attached to the front side of a riding-type control machine, and glufosinate was sprayed from near ground edge. The nozzle position can be varied depending on ridge width and soybean height. In a theory of spraying a herbicide, the herbicide is introduced from a herbicide tank through a hose so that the herbicide can be sprayed on a lower part between ridges (suspending mode). Some farmhouses devise by themselves this spraying apparatus.\nIn spraying (FIGS. 1, 2 and 3), morning glory spp. developed almost all over the field, and some of them coiled around soybean, the peak portion thereof extending up to over the head portion of soybean. FIG. 1 is a photograph showing full view of glufosinate spraying. FIG. 2 is a photograph showing glufosinate (salt) sprayed part. FIG. 3 is a photograph showing a herbicidal process of glufosinate (salt). […] FIG. 4 is a photograph showing the killing effect of glufosinate (salt) ranging to the peak portion (shown with an arrow) of the stem of Ipomoea triloba L. (14 days after spraying, August 23). […] This effect appeared even in the peak portion of the stem extending up to over the head portion of the soybean, and in this portion, leaves and stems of morning glory spp. turned to yellow. […] From these phenomena, it was believed that the morning glory spp. show very higher sensitivity to glufosinate (salt) than soybean."}, "soybean": {"tested_on": "soybean", "experiment": "Control machine-spraying of glufosinate (salt) on soybean inter-ridge: phytotoxicity and bean weight of soybean", "type": "in vivo", "details": "for Bean weight: soybean field with rampant morning glory spp., 500 mL/10 a sprayed August 9, crop November 11, non-sprayed district 96 ± 21", "protocol": "as §3, §4"}, "[4]": {"details": "not sprayed, 200-fold diluted solution sprayed from peak to between sixth and seventh leaves, examined November 6"}, "[5]": {"details": "sprayed region, 200-fold diluted solution sprayed on upper portion of stem, treated Oct. 23, 2005, examined November 6"}, "[6]": {"details": "scattering to soybean, 500 mL/10 a"}},
  "note": "Where a name gives a salt, the structure may show the parent alone.",
  "data": [
    {"smiles": "CC(C)N1C(=O)c2ccccc2NS1(=O)=O", "note": "[Pentazone]", "values": [
      {"measurement": "Herbicidal activity", "setting": "morning glory spp. [1]", "result": "lower activity"},
      {"measurement": "Herbicidal activity", "setting": "Abutilon theophrasti", "result": "high activity"}
    ]},
    {"smiles": "C[C@H](NC(=O)[C@H](C)NC(=O)[C@@H](N)CCP(C)(=O)O)C(=O)O", "note": "[bialaphos solution, bialaphos]", "values": [
      {"measurement": "Herbicidal effect 1 week after", "setting": "[2]; solution amount 500 mL/10 a", "result": "died up to the peak portion of vine"},
      {"measurement": "Herbicidal effect 1 week after", "setting": "[2]; solution amount 1000 mL/10 a", "result": "died up to the peak portion of vine"},
      {"measurement": "Herbicidal effect 1 week after", "setting": "[2]; solution amount 1500 mL/10 a", "result": "died up to the peak portion of vine"},
      {"measurement": "Onset of effect after the treatment", "setting": "[2]; sprayed from land surface up to 20 cm above ground, 500 to 1500 mL/10 a", "result": "observed from the next day after the treatment"}
    ]},
    {"smiles": "CP(=O)(O)CCC(N)C(=O)O", "note": "(stereo not shown) [glufosinate (salt), glufosinate]", "values": [
      {"measurement": "Effect, lower half portion of hill", "setting": "Ipomoea hederacea Jacq.; 200-fold diluted solution sprayed on lower half portion (sprayed portion), treated Aug. 13, 2005, examined August 23", "result": "+++"},
      {"measurement": "Effect, upper half portion of hill", "setting": "Ipomoea hederacea Jacq.; 200-fold diluted solution sprayed on lower half portion only, upper half not sprayed, treated Aug. 13, 2005, examined August 23, hills around 70 cm", "result": "+++"},
      {"measurement": "Where activity appeared after spraying only the lower half portion of the hill", "setting": "Ipomoea hederacea Jacq.; morning glory spp. (Ipomoea hederacea Jacq. and Ipomoea triloba L., see Table 1)", "result": "appeared not only in the lower half portion of the hill but also in the peak thereof"},
      {"measurement": "Effect, lower half portion of hill", "setting": "Ipomoea triloba L.; 200-fold diluted solution sprayed on lower half portion (sprayed portion)", "result": "+++"},
      {"measurement": "Effect, upper half portion of hill", "setting": "Ipomoea triloba L.; 200-fold diluted solution sprayed on lower half portion only, upper half not sprayed, hills around 70 cm", "result": "+++"},
      {"measurement": "Effect, leaf 1", "setting": "Ipomoea lacunosa L.; [4]", "result": "−"},
      {"measurement": "Effect, leaf 2", "setting": "Ipomoea lacunosa L.; [4]", "result": "−"},
      {"measurement": "Effect, leaf 3", "setting": "Ipomoea lacunosa L.; [4]", "result": "−"},
      {"measurement": "Effect, leaf 4", "setting": "Ipomoea lacunosa L.; [4]", "result": "−"},
      {"measurement": "Effect, leaf 5", "setting": "Ipomoea lacunosa L.; [4]", "result": "++"},
      {"measurement": "Effect, leaf 6", "setting": "Ipomoea lacunosa L.; [4]", "result": "++"},
      {"measurement": "Effect, root", "setting": "Ipomoea lacunosa L.; [4]", "result": "−"},
      {"measurement": "Effect in the lower leaves and in root after spraying only the upper portion of the stem", "setting": "Ipomoea lacunosa L.; see Table 2", "result": "not observed"},
      {"measurement": "Effect under the sprayed region after spraying only the upper portion of the stem", "setting": "Ipomoea lacunosa L.; see Table 2", "result": "observed in one to two leaves under the sprayed region"},
      {"measurement": "Effect, leaf 7", "setting": "Ipomoea lacunosa L.; [5]", "result": "+++"},
      {"measurement": "Effect, leaf 8", "setting": "Ipomoea lacunosa L.; [5]", "result": "+++"},
      {"measurement": "Effect, peak portion of stem", "setting": "Ipomoea lacunosa L.; [5]", "result": "+++"},
      {"measurement": "Herbicidal activity at low herbicidal amount", "setting": "morning glory spp. [1]; 100 mL/10 a", "result": "high activity"},
      {"measurement": "Herbicidal activity", "setting": "morning glory spp. [1]", "result": "high activity"},
      {"measurement": "Herbicidal activity", "setting": "Abutilon theophrasti", "result": "high activity"},
      {"measurement": "Herbicidal activity", "setting": "Sida spinosa L.", "result": "high activity"},
      {"measurement": "Herbicidal activity", "setting": "HIROHAFUURINHOZUKI", "result": "high activity"},
      {"measurement": "Herbicidal activity", "setting": "Aeschynomene indica", "result": "high activity"},
      {"measurement": "Herbicidal activity", "setting": "Solanum carolinense", "result": "high activity"},
      {"measurement": "Herbicidal effect 4 days after spraying", "setting": "morning glory spp. [3]; August 13", "result": "most of leaves at grapevine-form parts of the morning glory spp. died"},
      {"measurement": "Herbicidal effect 14 days after spraying", "setting": "morning glory spp. [3]; August 23", "result": "most of the morning glory spp. died up to the peak portion of the stem"},
      {"measurement": "Onset of herbicidal effect after spraying", "setting": "morning glory spp. [3]; soybean field", "result": "observed from the next day after spraying"},
      {"measurement": "Phytotoxicity in soybean on spraying only the lower portion of a stem of morning glory spp.", "setting": "soybean; control machine spraying in soybean field", "result": "scarce phytotoxicity"},
      {"measurement": "Phytotoxicity in the cotyledon and the first leaf of soybean", "setting": "soybean; [6]", "result": "observed"},
      {"measurement": "Phytotoxicity in the upper leaves of soybean", "setting": "soybean; [6]", "result": "little phytotoxicity"},
      {"measurement": "Bean weight", "setting": "soybean; listed as Glufosinate (salt)", "result": "193 ± 29", "unit": "kg/10 a"},
      {"measurement": "Bean weight", "setting": "soybean; listed as glufosinate", "result": 193, "unit": "kg/10 a"}
    ]},
    {"smiles": "CC(C)N.O=C(O)CNCP(=O)(O)O", "note": "[glyphosate isopropylammonium]", "values": [
      {"measurement": "Herbicidal activity at the field level", "setting": "morning glory spp. [1]; at the field level in this test range", "result": "insufficient"},
      {"measurement": "Manifestation of the activity", "setting": "morning glory spp. [1]; on these plants (morning glory spp. and the other tested weeds)", "result": "specifically slow manifestation of the activity"}
    ]}
  ]
}
